Experimental data taken from PMC8528301 (PLoS ONE, 2021).
“And” between values parts separate entries of the source, which are not always exact repeats. Equal entries are not always repeated.

Experiment: Dasatinib single oral gavage plasma pharmacokinetics (NLME modeling)
Assay type: in vivo, mouse
Set-up: DV (dasatinib plasma concentration): unit: ng/mL
Protocol: Dasatinib was dissolved in 80 mMol/L sodium citrate buffer pH 3.1 for a total dasatinib concentration of 1 mg/mL and a 10 mL/kg gavage volume. Mice were grouped by VD3 status and sex and studied at 8 and 10 weeks of age. […] Saphenous and submandibular bleeds of mice using a single-use Sarstedt Minivette POCT 50 μL K3 EDTA capillary device are humane methods for obtaining small volumes of blood over multiple time points, preferrable to retroorbital bleeds, and were approved for this study that required blood sampling at multiple time points (three) after dasatinib administration. Each mouse was sampled three times on two separate dasatinib dosing occasions. Blood was collected into the Minivette capillary device, dispensed into a microtube and vortexed to mix the anticoagulant. The tubes were then immediately centrifuged to plasma and stored on dry ice for the remainder of the study. At the end of the in vivo procedures, plasma samples were transferred from dry ice and placed at -80°C until analysis.
Total plasma dasatinib concentrations were assessed using a sensitive and specific liquid chromatography, tandem mass spectrometry (LC-MS/MS) assay. Dasatinib stock solutions were prepared in acetonitrile and used to spike matrix calibrators and quality controls. Protein precipitation was performed using a 1:4 ratio of plasma to 15 ng/mL erlotinib HCl (St. Jude Compound Management, S00004053, Inventory ID: SJCH0042996, Purity > 95%) in methanol as an internal standard. A 3μL aliquot of the extracted supernatant was injected onto a Shimadzu LC-20ADXR high performance liquid chromatography system via a LEAP CTC PAL autosampler. The LC separation was performed using a Phenomenex Kinetex 2.6 um EVO C18 (100A, 50 x 2.1 mm) maintained at 50°C with gradient elution at a flow rate of 0.5 mL/min. The binary mobile phase gradient began with a linear increase to 100% B in 4.0 minutes. The column was then rinsed for 2.0 minutes at 100% B and then equilibrated at the initial conditions for two minutes for a total run time of eight minutes.
Analyte and IS were detected with tandem mass spectrometry using a SCIEX API 5500 Q-TRAP in the positive ESI mode with monitoring of the following mass transitions: Dasatinib 488.20 -> 401.00, erlotinib HCl 394.20 -> 250.10.
The experimental bioanalytical runs were all found to be acceptable for the purpose of a singlicate non-GLP, preclinical PK assessment. A linear model (1/X^2 weighting) fit the calibrators across the 1.00 to 500 ng/mL range, with a correlation coefficient (R) of […]. The lower limit of quantification (LLOQ), defined as a peak area signal-to-noise ratio of 5 or greater verses a matric blank with IS, was 1.00 ng/mL.
§ To evaluate the plasma pharmacokinetics (PK) of dasatinib af t er two separate single oral gavage doses of solution, separated by a washout period, in normal C57BL/6 mice […]
vs 10wk) on the plasma PK of oral dasatinib us ing a nonlinear mixed effects (NLME) PK modeling […]
2. 1 In Vivo Pharmacokinetic (PK) Study
The total plasma PK of dasatinib in C57BL/6 mice (The Jackson Laboratory) was assessed after single oral gavages of 10 mg/kg of dasatinib free base equivalents. Dasatinib (St. Jude Compound […]
sodium citrate buffer pH 3.1 for a final dasatinib concentration of 1 mg/mL for a 10 mL/kg gavage volume.
Mice were grouped by Vitamin D dietary sufficiency status and sex, and studied at 8 and 10 weeks of age. Survival saphenous and facial vein bleeding of mice was conducted using IACUC-approved […]
was sampled 3 times on the 2 separate occasions of dasatinib dosing. […] The tubes were then immediately centrifuged to plasma, and stored on dry ice for […]

SMILES: Cc1nc(Nc2ncc(C(=O)Nc3c(C)cccc3Cl)s2)cc(N2CCN(CCO)CC2)n1 [dasatinib]
- calculated Cgut (10 mg/kg into a gastric volume of 300–400 μL): 1.5 mM
- influence of VD3 status, sex, or age on oral dasatinib PK (10 mg/kg oral gavage, 8 wk vs 10 wk): no influence
- Q pop (Base Model): 19.5 mL/min/kg
- V1 pop (apparent volume of central compartment) (Base Model): 12.7 L/kg
- V2 pop (Base Model): 11.1 L/kg
- omega_Cl (inter-individual variability) (Base Model): 0.294 %CV
- omega_V1 (inter-individual variability) (Base Model): 0.465 %CV
- Tk0 pop (Base Model, 10 mg/kg oral gavage, zero order absorption duration): 1.29 h
- Q pop (Final Model): 21 mL/min/kg
- V1 pop (Final Model): 12.2 L/kg
- V2 pop (Final Model): 11.2 L/kg
- omega_Cl (Final Model): 0.287 %CV
- omega_V1 (Final Model): 0.477 %CV
- Tk0 pop (Final Model (VD3 status and sex covariates on Cl)): 1.33 h
- DV (dasatinib plasma concentration) (GROUP:VD3 Def, SEX:F, OCC 1, time 0.5): 206.1 and 158.35
- DV (dasatinib plasma concentration) (GROUP:VD3 Def, SEX:F, OCC 1, time 1): 457.04 and 404.1
- DV (dasatinib plasma concentration) (GROUP:VD3 Def, SEX:F, OCC 1, time 2): > 500 and 323.65
- DV (dasatinib plasma concentration) (GROUP:VD3 Def, SEX:F, OCC 1, time 8): 33.172 and 43.592
- DV (dasatinib plasma concentration) (GROUP:VD3 Def, SEX:F, OCC 1, time 16): 2.7889 and 2.9067
- DV (dasatinib plasma concentration) (GROUP:VD3 Def, SEX:F, OCC 2, time 0.125): 29.279 and 44.718
- DV (dasatinib plasma concentration) (GROUP:VD3 Def, SEX:F, OCC 2, time 0.25): 240.93 and 155.4
- DV (dasatinib plasma concentration) (GROUP:VD3 Def, SEX:F, OCC 2, time 0.5): 128.51 and 161.37
- DV (dasatinib plasma concentration) (GROUP:VD3 Def, SEX:F, OCC 2, time 16): 6.2042 and 7.8308
- DV (dasatinib plasma concentration) (GROUP:VD3 Def, SEX:M, OCC 1, time 0.25): 143.39 and 275.48
- DV (dasatinib plasma concentration) (GROUP:VD3 Def, SEX:M, OCC 1, time 0.5): 240.61 and 267.78
- DV (dasatinib plasma concentration) (GROUP:VD3 Def, SEX:M, OCC 1, time 2): 760.24
- DV (dasatinib plasma concentration) (GROUP:VD3 Def, SEX:M, OCC 1, time 4): 99.618 and 81.306
- DV (dasatinib plasma concentration) (GROUP:VD3 Def, SEX:M, OCC 1, time 8): 11.773 and 10.821
- DV (dasatinib plasma concentration) (GROUP:VD3 Def, SEX:M, OCC 1, time 24): 7.0494 and 5.7321
- DV (dasatinib plasma concentration) (GROUP:VD3 Def, SEX:M, OCC 2, time 0.5): 117.58 and 209.13
- DV (dasatinib plasma concentration) (GROUP:VD3 Def, SEX:M, OCC 2, time 2): 376.78 and > 500
- DV (dasatinib plasma concentration) (GROUP:VD3 Def, SEX:M, OCC 2, time 4): 62.561 and 70.903
- DV (dasatinib plasma concentration) (GROUP:VD3 Def, SEX:M, OCC 2, time 8): 13.735 and 13.061
- DV (dasatinib plasma concentration) (GROUP:VD3 Def, SEX:M, OCC 2, time 16): 8.5466 and 7.4123
- DV (dasatinib plasma concentration) (GROUP:VD3 Suf, SEX:F, OCC 1, time 0.25): 244.67 and 197.71
- DV (dasatinib plasma concentration) (GROUP:VD3 Suf, SEX:F, OCC 1, time 0.5): 144.41 and 217.29
- DV (dasatinib plasma concentration) (GROUP:VD3 Suf, SEX:F, OCC 1, time 2): 466.97 and > 500
- DV (dasatinib plasma concentration) (GROUP:VD3 Suf, SEX:F, OCC 1, time 4): 105.56 and 62.725
- DV (dasatinib plasma concentration) (GROUP:VD3 Suf, SEX:F, OCC 1, time 8): 11.198 and 14.683
- DV (dasatinib plasma concentration) (GROUP:VD3 Suf, SEX:F, OCC 1, time 16): 1.9898 and 3.161
- DV (dasatinib plasma concentration) (GROUP:VD3 Suf, SEX:F, OCC 2, time 0.5): 124.69 and 151.83
- DV (dasatinib plasma concentration) (GROUP:VD3 Suf, SEX:F, OCC 2, time 2): 295.49 and 395.48
- DV (dasatinib plasma concentration) (GROUP:VD3 Suf, SEX:F, OCC 2, time 4): 72.682 and 42.565
- DV (dasatinib plasma concentration) (GROUP:VD3 Suf, SEX:F, OCC 2, time 16): 9.1881 and 6.2417
- DV (dasatinib plasma concentration) (GROUP:VD3 Suf, SEX:M, OCC 1, time 0.125): 35.897 and 45.322
- DV (dasatinib plasma concentration) (GROUP:VD3 Suf, SEX:M, OCC 1, time 0.25): 87.715 and 117.65
- DV (dasatinib plasma concentration) (GROUP:VD3 Suf, SEX:M, OCC 1, time 2): > 500 and 483.94
- DV (dasatinib plasma concentration) (GROUP:VD3 Suf, SEX:M, OCC 1, time 4): 103.68 and 89.88
